Assay results published in ChEMBL document CHEMBL4266060, “Structure-Property Relationship Studies of Influenza A Virus AM2-S31N Proton Channel Blockers” (ACS Med Chem Lett, 2018).

Columns and labels:
Influenza A virus [1] = test: microbe, parasite or virus in culture; details: MDCK
Influenza A virus [2] = test: microbe, parasite or virus in culture; details: A/North Carolina/29/2009(H1N1), MDCK
Influenza A virus [3] = test: microbe, parasite or virus in culture; details: MDCK; remark: listed apart in the source
Influenza A virus [4] = test: microbe, parasite or virus in culture; details: MDCK; remark: listed apart in the source
Influenza A virus [5] = test: microbe, parasite or virus in culture; details: MDCK; remark: listed apart in the source
Influenza A virus [6] = details: mdck

SMILES | EC50 (Influenza A virus [1]) | EC50 (Influenza A virus [2]) | EC50 (Influenza A virus [3]) | EC50 (Influenza A virus [4]) | EC50 (Influenza A virus [5]) | EC50 (Influenza A virus [6])
OC12CC3CC(C1)CC(NCc1ccc(Br)s1)(C3)C2 | 600 nM | 2800 nM | 700 nM | 2000 nM | 1400 nM | 
OC12CC3CC(C1)CC(NCc1ccc(I)s1)(C3)C2 | 600 nM |  | 400 nM | 700 nM | 800 nM | 1100 nM
CCC(CC)O[C@@H]1C=C(C(=O)O)C[C@H](N)[C@H]1NC(C)=O [OSELTAMIVIR CARBOXYLATE] | > 200 nM | > 200 nM | > 200 nM | > 200 nM | 2.5 nM | 
